Patent publication US3975399A, “1,5-Disubstituted-2-pyrrolidinones, -3-pyrrolin-2-ones, and -4-pyrrolin-2-ones” (E. I. Du Pont de Nemours and Company, priority 1974, dated 1976)
Converted amounts (≈) assume the structure as drawn.

Columns and labels:
[1] = tested on: bronchial smooth muscle; conditions: cited from earlier work
[2] = tested on: rat uterine smooth muscle; assay: Contraction of rat uterine smooth muscle
[3] = tested on: adjuvant-induced arthritis in rats; assay: Systemic antiinflammatory activity against adjuvant-induced arthritis in rats; format: in vivo, rat; conditions: intraperitoneal injection, 50 mg/kg
[4] = tested on: croton oil-induced inflammation of mouse ears; assay: Topical antiinflammatory activity against croton oil-induced inflammation of mouse ears; format: in vivo; conditions: 2-3 mg/ear
[5] = tested on: PGE1-induced smooth muscle contractions; assay: Antagonism of PGE1-induced smooth muscle contractions; conditions: read-out: antagonizes PGE1-induced smooth muscle contractions, concentration for 50% inhibition
[6] = tested on: inflammation; assay: Topical and injectable antiinflammatory activity (general statement); format: in vivo
[7] = tested on: croton oil-induced inflammation of rat ears; assay: Topical antiinflammatory activity against croton oil-induced inflammation of rat ears; format: in vivo; conditions: 2-3 mg/ear
[8] = tested on: gastrin-induced gastric acid secretion; assay: Gastrin-induced gastric acid secretion; conditions: in vivo
[9] = tested on: histamine-induced bronchoconstriction; assay: Histamine-induced bronchoconstriction; conditions: in vivo

| SMILES | systemic antiinflammatory activity [3] | topical antiinflammatory activity [4] | active as injectable antiinflammatory agent [6] | active as topical antiinflammatory agent [6] | topical antiinflammatory activity [7] | further results |
| --- | --- | --- | --- | --- | --- | --- |
| CCCCC[C@H](O)/C=C/[C@H]1[C@H](O)CC(=O)[C@@H]1CCCCCCC(=O)O [PGE1, reference compound] | – | – | – | – | – | effect on the contracting action of PGF2α [1]: reverses or antagonizes; contraction of rat uterine smooth muscle (in words) ([2]; comparator for compound 5): contracts rat uterine smooth muscle |
| CCCCC[C@H](O)/C=C/[C@@H]1[C@@H](C/C=C\CCCC(=O)O)[C@@H](O)C[C@H]1O [PGF2 α] | – | – | – | – | – | contracting action [1]: contracting action |
| CCCCCC(O)/C=C/C1CCC(=O)N1CCCCCCC(=O)OC(C)(C)C (stereo not drawn) [Compound 4, Tert-butyl 7-[2-Oxo-5-(3-hydroxy-1-oct-1-enyl)-1-pyrrolidinyl]heptanoate] | also active, though slightly less so | also active, though slightly less so | active | active | also active, though slightly less so | IC50 [5]: 10 µg/mL (≈ 25.3 µM); antagonism of the contracting action of compound 5 ([2]; rat uterine smooth muscle, compound 5-induced contraction): is antagonized in this action |
| CCCCCC(O)/C=C/C1CCC(=O)N1CCCCCCC(=O)O (stereo not drawn) [Compound 5, 7-[2-Oxo-5-(3-hydroxy-1-oct-1-enyl)-1-pyrrolidinyl]-heptanoic Acid] | has shown activity | has shown activity | active | active | has shown activity | contracts rat uterine smooth muscle (concentration) ([2]; in the same way as PGE1): 50 ng/mL; activity in cutting off gastrin-induced gastric acid secretion [8]: has shown activity; activity as antagonist to histamine-induced bronchoconstriction [9]: has shown activity |
